Molecules are shown by their SMILES.

Chain of hOGG1 (O15527 12-323): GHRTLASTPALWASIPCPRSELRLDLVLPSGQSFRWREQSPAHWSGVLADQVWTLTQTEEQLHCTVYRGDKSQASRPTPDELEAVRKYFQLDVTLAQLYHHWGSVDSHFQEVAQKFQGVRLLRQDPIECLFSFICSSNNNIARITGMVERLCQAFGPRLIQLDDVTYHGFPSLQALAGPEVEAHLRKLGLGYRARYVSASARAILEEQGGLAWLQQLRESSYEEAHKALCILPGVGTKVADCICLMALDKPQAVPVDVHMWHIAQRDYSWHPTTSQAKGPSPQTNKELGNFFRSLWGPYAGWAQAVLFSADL

The experiment has as its target hOGG1 (Homo sapiens, UniProt O15527). Nature of the experiment: Biochemical fluorescence assay to measure enzymatic activity of hOGG1 (OGG1/APEX IC50). As to conditions: 1 nM OGG1+2 nM APEX+6 nM dsDNA (8-oxo-dG substrate); pH 7.5; RT 40 min; read-out: OGG1/APEX IC50. Also noted: Protein His-hOGG1 (12-323) was prepared; His (N); host or cells: E. coli. The method, boiled down:
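His-hOGG1 (12-323, E. coli) at 1 nM with 2 nM hAPE1/APEX1, preincubated 20 min RT with compound. Then 6 nM 8-oxo-dG dsDNA substrate added, 40 min at RT in Tris pH 7.5, 100 mM KCl. TAMRA fluorescence (Ex520/Em600) converted to % inhibition vs controls; IC50 from 3-parameter fit of 10-point curve.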
Take `Cc1cccc2c1CN([C@H]1CC[C@@H](C(=O)Nc3ccc4cnn(C)c4c3)CC1)C2=O` [Example 215, (1s,4s)-4-(4-Methyl-1-oxoisoindolin-2-yl)-N-(1-methyl-1H-indazol-6-yl)cyclohexanecarboxamide]: the IC50 lay within 1 to 10 µM.

Turning to `Cc1cccc2c1CN([C@H]1CC[C@@H](C(=O)Nc3ccc(Cl)cc3)CC1)C2=O` [Example 216, (1s,4s)-N-(4-Chlorophenyl)-4-(4-methyl-1-oxoisoindolin-2-yl)cyclohexanecarboxamide], the IC50 was 0.1 to 1 µM.

`COc1cc(NC(=O)[C@H]2CC[C@@H](N3Cc4c(C)cc(C(=O)NCCN(C)C)cc4C3=O)CC2)ccc1C` [Example 217, N-(2-(Dimethylamino)ethyl)-2-((1s,4s)-4-(3-methoxy-4-methylphenylcarbamoyl)cyclohexyl)-7-methyl-3-oxoisoindoline-5-carboxamide]: the IC50 is below 0.1 µM.

Take `Cc1ccc(NC(=O)[C@H]2CC[C@@H](N3Cc4c(C)cccc4C3=O)CC2)cc1C#N` [Example 218, (1s,4s)-N-(3-Cyano-4-methylphenyl)-4-(4-methyl-1-oxoisoindolin-2-yl)cyclohexanecarboxamide]: the IC50 lay within 1 to 10 µM.

With `COc1ccc(NC(=O)[C@H]2CC[C@@H](N3Cc4c(C)cccc4C3=O)CC2)cc1OC` [Example 219, (1s,4s)-N-(3,4-dimethoxyphenyl)-4-(4-methyl-1-oxoisoindolin-2-yl)cyclohexanecarboxamide], the IC50 is 0.1 to 1 µM.

For the compound `Cc1cc(NC(=O)[C@H]2CC[C@@H](N3Cc4c(C)cccc4C3=O)CC2)ccc1O` [Example 220, (1s,4s)-N-(4-Hydroxy-3-methylphenyl)-4-(4-methyl-1-oxoisoindolin-2-yl)cyclohexanecarboxamide], the IC50 is 0.1 to 1 µM.

For `COc1ncc(NC(=O)[C@H]2CC[C@@H](N3Cc4c(C)cccc4C3=O)CC2)cc1Cl` [Example 221, (1s,4s)-N-(5-Chloro-6-methoxypyridin-3-yl)-4-(4-methyl-1-oxoisoindolin-2-yl)cyclohexanecarboxamide], the IC50 lay in the range of 0.1 to 1 µM.

For `Cc1ccc(NC(=O)[C@H]2CC[C@@H](N3Cc4c(C)cccc4C3=O)CC2)cc1O` [Example 222, (1s,4s)-N-(3-Hydroxy-4-methylphenyl)-4-(4-methyl-1-oxoisoindolin-2-yl)cyclohexanecarboxamide], the IC50 fell in the range of 1 to 10 µM.

On to `COc1cc(NC(=O)[C@H]2CC[C@@H](N3Cc4c(C)cccc4C3=O)CC2)ccc1Cl` [Example 223, (1s,4s)-N-(4-Chloro-3-methoxyphenyl)-4-(4-methyl-1-oxoisoindolin-2-yl)cyclohexanecarboxamide], for which the IC50 lay within 0.1 to 1 µM.

Turning to `COc1ccc(NC(=O)[C@H]2CC[C@@H](N3Cc4c(C)cccc4C3=O)CC2)cc1F` [Example 224, (1s,4s)-N-(3-Fluoro-4-methoxyphenyl)-4-(4-methyl-1-oxoisoindolin-2-yl)cyclohexanecarboxamide], the IC50 is 0.1 to 1 µM.

Regarding `Cc1cc(NC(=O)[C@H]2CC[C@@H](N3Cc4c(C)cccc4C3=O)CC2)ccc1Cl` [Example 225, (1s,4s)-N-(4-Chloro-3-methylphenyl)-4-(4-methyl-1-oxoisoindolin-2-yl)cyclohexanecarboxamide], the IC50 lay in the range of 0.1 to 1 µM.

On to `COc1cc(NC(=O)[C@H]2CC[C@@H](N3Cc4c(C)cc(OCc5ncc[nH]5)cc4C3=O)CC2)ccc1C` [Example 226, (1s,4s)-4-(6-((1H-Imidazol-2-yl)methoxy)-4-methyl-1-oxoisoindolin-2-yl)-N-(3-methoxy-4-methylphenyl)cyclohexanecarboxamide], for which the IC50 lay within 0.1 to 1 µM.

In the case of `Cc1cccc2c1CN([C@H]1CC[C@@H](C(=O)Nc3ccc4ncccc4c3)CC1)C2=O` [Example 228, (1s,4s)-4-(4-Methyl-1-oxoisoindolin-2-yl)-N-(quinolin-6-yl)cyclohexanecarboxamide], the IC50 was in the range of 1 to 10 µM.

As to `Cc1cccc2c1CN([C@H]1CC[C@@H](C(=O)Nc3ccc(O)cc3)CC1)C2=O` [Example 229, (1s,4s)-N-(4-Hydroxyphenyl)-4-(4-methyl-1-oxoisoindolin-2-yl)cyclohexanecarboxamide], the IC50 fell in the range of 1 to 10 µM.

The record behind these values is patent publication US20260317356A1, “SMALL MOLECULE MODULATORS OF OGG1” (AZKARRA THERAPEUTICS, INC., priority 2023, published 2026).
